# Measurements reported in patent publication US8841456B2, “1,5-naphthyridine derivative or salt thereof” (FUJIFILM Corporation, priority 2011, dated 2014).
# Read-outs that look alike come from different tables or passages of the source.
# What was measured:
# human PI3Kα protein = target: T1, human PI3Kα protein (Homo sapiens, UniProt P42336); assay: PI3Kα enzyme assay (ADP-Glo kinase assay); format: biochemical; details: 3 nM PI3Kα, 50 μM PIP2, 100 μM ATP
# T1 construct: purchased Carna Biosciences, Inc; host or cells: Baculovirus expression system
# Experimental: Evaluation of the PI3Kα inhibitory activity of the compound of the present invention was carried out according to the method as described below.
# For the PI3Kα enzyme assay, biotinylated product of a human PI3Kα protein produced using a Baculovirus expression system (Carna Biosciences, Inc.) was used. Further, for the detection of the enzyme activity, an ADP-Glo kinase assay (PROMEGA Corporation) was used.
# 10 μL of a reaction solution (3 nM PI3Kα, 40 mM Tris-HCl, 20 mM MgCl2, 0.1% BSA, pH 7.5) including the human PI3Kα protein and a test compound at a predetermined concentration was incubated at room temperature for 15 minutes. Thereafter, 5 μL of a mixed solution of L-α-Phosphatidylinositol 4,5-diphosphate (PIP2) (SIGMA-ALDLICH) which was a substrate and ATP(SIGMA-ALDLICH) was added thereto to a final concentration of 50 μM and 100 μM, respectively, and the reaction solution was further incubated at 25° C. for 60 minutes to carry out an enzyme reaction.
# After the reaction, 15 μL of an ADP-Glo reagent (PROMEGA Corporation) was added and the resulting liquid was incubated at room temperature for 60 minutes, whereby the enzyme reaction was stopped. Thereafter, after further adding 30 μL of a Kinase Detection Reagent (PROMEGA Corporation) and standing the resulting solution at room temperature for 40 minutes, ADP produced by the enzyme reaction was quantified by luminescence intensity.
# For the measurement of luminescence intensity, EnVision (PerkinElmer, Inc.) was used.
# (§1) The inhibitory activity of the compounds was evaluated using an IC50 (50% inhibitory concentration). The IC50 was calculated using XLfit (IDBS).
# [1] = target: T2, glutathione S-transferase (GST)-fusion human ERK2 protein (Homo sapiens, UniProt P28482); assay: ERK2 enzyme assay (LabChip mobility shift); format: biochemical; details: 2 nM ERK2, 4.25 μM FL-Peptide 8, 43 μM ATP
# T2 construct: purchased Carna Biosciences, Inc; host or cells: E. coli expression system
# Experimental: Evaluation of the ERK2 inhibitory activity of the compound of the present invention was carried out according to the method as described below.
# For the ERK2 enzyme assay, a glutathione S-transferase (GST)-fusion human ERK2 protein (Carna Biosciences, Inc.) produced using an E. coli expression system was used.
# 12 μL of the reaction solution (2 nM ERK2, 100 mM Hepes, 10 mM MgCl2, 1.5 mM DTT, 0.003% Brij35, pH 7.5) including the ERK2 protein and a test compound at a predetermined concentration was incubatedat room temperature for 15 minutes. Thereafter, 3 μL of a mixed solution of FL-Peptide 8 (5-FAM-IPTSPITTTYFFFKKK-COOH) (Caliper Lifescience) which was a substrate and ATP(SIGMA-ALDLICH) were added thereto to a final concentration of 4.25 μM and 43 μM, respectively. The reaction solution was further incubated at 25° C. for 120 minutes to carry out an enzyme reaction.
# The enzyme reaction was stopped by adding 27 μL of a reaction-stopping solution (100 mM HEPES, 11.2 mM EDTA, 5.6% Brij35, pH 7.5) including a 0.5% Coating reagent 8 (PerkinElmer, Inc.) after the reaction. Thereafter, non-phosphorylated peptides and phosphorylated peptides were separated using LabChip Ez Reader (Caliper LifeScience, Inc.) to quantify the proportion of phosphorylated peptides.
# as §1
# [2] = IC50 class, read-out: PI3Kα Inhibitory Activity
# [3] = IC50 class, read-out: ERK2 Inhibitory Activity
# T1 sequence (P42336 whole entry): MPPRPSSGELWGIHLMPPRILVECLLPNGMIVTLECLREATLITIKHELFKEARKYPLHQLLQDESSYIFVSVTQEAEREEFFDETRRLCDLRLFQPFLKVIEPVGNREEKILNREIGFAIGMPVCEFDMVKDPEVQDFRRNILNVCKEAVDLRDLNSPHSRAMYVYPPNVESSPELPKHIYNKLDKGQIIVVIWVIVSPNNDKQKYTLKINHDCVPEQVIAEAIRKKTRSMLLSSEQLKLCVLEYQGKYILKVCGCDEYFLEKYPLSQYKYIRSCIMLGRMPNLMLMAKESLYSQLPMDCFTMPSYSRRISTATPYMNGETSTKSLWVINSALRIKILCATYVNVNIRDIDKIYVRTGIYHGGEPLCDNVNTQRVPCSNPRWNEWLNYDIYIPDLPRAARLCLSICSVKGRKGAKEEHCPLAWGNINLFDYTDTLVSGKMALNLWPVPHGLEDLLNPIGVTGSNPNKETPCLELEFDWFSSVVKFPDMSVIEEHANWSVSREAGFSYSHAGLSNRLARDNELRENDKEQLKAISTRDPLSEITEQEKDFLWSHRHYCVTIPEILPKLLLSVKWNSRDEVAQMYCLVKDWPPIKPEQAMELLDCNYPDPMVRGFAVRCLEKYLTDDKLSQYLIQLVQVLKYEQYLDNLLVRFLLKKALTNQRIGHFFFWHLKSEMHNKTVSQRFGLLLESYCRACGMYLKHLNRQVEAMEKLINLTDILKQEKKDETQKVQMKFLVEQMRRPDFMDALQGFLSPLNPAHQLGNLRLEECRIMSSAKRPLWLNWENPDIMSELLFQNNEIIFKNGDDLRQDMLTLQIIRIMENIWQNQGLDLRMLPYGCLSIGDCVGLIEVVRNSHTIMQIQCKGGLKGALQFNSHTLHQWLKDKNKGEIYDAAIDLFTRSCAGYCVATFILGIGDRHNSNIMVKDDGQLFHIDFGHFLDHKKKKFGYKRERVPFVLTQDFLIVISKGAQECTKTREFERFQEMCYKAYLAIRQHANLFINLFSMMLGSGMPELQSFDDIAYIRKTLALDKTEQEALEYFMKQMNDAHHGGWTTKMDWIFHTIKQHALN
# T1 sequence (P27986 whole entry partner): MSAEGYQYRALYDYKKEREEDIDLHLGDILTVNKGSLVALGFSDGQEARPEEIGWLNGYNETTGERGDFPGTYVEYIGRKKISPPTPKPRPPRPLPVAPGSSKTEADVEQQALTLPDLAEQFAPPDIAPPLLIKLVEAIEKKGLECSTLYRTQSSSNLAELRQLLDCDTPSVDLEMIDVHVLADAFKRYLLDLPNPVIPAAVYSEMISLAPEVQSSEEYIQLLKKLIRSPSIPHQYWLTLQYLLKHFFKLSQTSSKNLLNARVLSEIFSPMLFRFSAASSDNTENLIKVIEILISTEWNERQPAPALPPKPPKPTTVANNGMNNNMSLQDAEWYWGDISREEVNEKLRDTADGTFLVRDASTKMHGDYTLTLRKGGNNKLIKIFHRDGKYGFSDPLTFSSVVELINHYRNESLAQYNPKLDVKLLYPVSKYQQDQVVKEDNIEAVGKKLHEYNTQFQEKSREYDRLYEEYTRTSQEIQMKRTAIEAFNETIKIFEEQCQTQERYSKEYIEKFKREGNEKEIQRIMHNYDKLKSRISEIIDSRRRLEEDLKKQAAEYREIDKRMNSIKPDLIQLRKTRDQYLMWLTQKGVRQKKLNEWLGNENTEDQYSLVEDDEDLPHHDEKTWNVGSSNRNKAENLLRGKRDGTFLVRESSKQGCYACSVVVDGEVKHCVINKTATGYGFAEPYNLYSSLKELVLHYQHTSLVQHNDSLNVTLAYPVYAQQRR
# T2 sequence (P28482 whole entry, the tested form may be a part): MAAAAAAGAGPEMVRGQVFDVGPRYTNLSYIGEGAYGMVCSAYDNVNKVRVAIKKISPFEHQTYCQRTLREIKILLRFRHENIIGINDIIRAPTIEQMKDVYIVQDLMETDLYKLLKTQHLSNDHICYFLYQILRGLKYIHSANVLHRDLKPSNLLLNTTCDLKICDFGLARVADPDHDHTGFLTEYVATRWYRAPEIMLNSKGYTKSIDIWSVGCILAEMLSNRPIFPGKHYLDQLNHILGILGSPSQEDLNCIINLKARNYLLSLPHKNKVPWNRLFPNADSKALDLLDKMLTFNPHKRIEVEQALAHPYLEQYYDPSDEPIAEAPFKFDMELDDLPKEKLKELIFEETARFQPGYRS
Structure (SMILES),IC50 (human PI3Kα protein; [2]),"IC50 [1, 3]","IC50 (human PI3Kα protein; read-out: PI3Kα, IC50)","IC50 ([1]; read-out: ERK2, IC50)"
CCNC(=O)Nc1ccc2ncc(-c3cn[nH]c3)cc2n1 [Compound 0054],0.1 to 1 µM,< 0.1 µM,,
CCCNC(=O)Nc1ccc2ncc(-c3cn[nH]c3)cc2n1 [Compound 0055],0.1 to 1 µM,< 0.1 µM,,
CC(C)(C)NC(=O)Nc1ccc2ncc(-c3cn[nH]c3)cc2n1 [Compound 0059],< 0.1 µM,< 0.1 µM,,
O=C(Nc1ccc2ncc(-c3cn[nH]c3)cc2n1)NC1CCCCC1 [Compound 0061],< 0.1 µM,< 0.1 µM,,
CCOC(=O)CNC(=O)Nc1ccc2ncc(-c3cn[nH]c3)cc2n1 [Compound 0062],1 to 10 µM,0.1 to 1 µM,,
O=C(NCC1CCCCC1)Nc1ccc2ncc(-c3cn[nH]c3)cc2n1 [Compound 0063],0.1 to 1 µM,< 0.1 µM,,
O=C(NCCCCc1ccccc1)Nc1ccc2ncc(-c3cn[nH]c3)cc2n1 [Compound 0064],< 0.1 µM,< 0.1 µM,0.05 µM,< 0.003 µM
CC(C)(C)OC(=O)n1cc(-c2cnc3ccc(NC(=O)NC4CCCc5ccccc54)nc3c2)cn1 (stereo not drawn) [Compound 0066],1 to 10 µM,< 0.1 µM,,
O=C(Nc1ccc2ncc(-c3cn[nH]c3)cc2n1)NC1CC1 [Compound 0067],0.1 to 1 µM,< 0.1 µM,,
O=C(Nc1ccc2ncc(-c3cn[nH]c3)cc2n1)NC1C[C@H]2CC[C@@H]1C2 (stereo partly drawn) [Compound 0068],< 0.1 µM,< 0.1 µM,0.03 µM,0.004 µM
O=C(Nc1ccc2ncc(-c3cn[nH]c3)cc2n1)NC1CCN(Cc2ccccc2)C1 (stereo not drawn) [Compound 0069],0.1 to 1 µM,< 0.1 µM,0.133 µM,< 0.003 µM
CC(C)(C)OC(=O)N1CC[C@@H](NC(=O)Nc2ccc3ncc(-c4cn[nH]c4)cc3n2)C1 [Compound 0070],0.1 to 1 µM,< 0.1 µM,,
CC(C)(C)OC(=O)N1CC[C@H](NC(=O)Nc2ccc3ncc(-c4cn[nH]c4)cc3n2)C1 [Compound 0071],< 0.1 µM,0.1 to 1 µM,,
CC(C)C(C)NC(=O)Nc1ccc2ncc(-c3cn[nH]c3)cc2n1 (stereo not drawn) [Compound 0072],< 0.1 µM,< 0.1 µM,,
O=C(Nc1ccc2ncc(-c3cn[nH]c3)cc2n1)NC1CCOC1 (stereo not drawn) [Compound 0075],0.1 to 1 µM,< 0.1 µM,,
O=C(Nc1ccc2ncc(-c3cn[nH]c3)cc2n1)NC1CCOCC1 [Compound 0076],0.1 to 1 µM,< 0.1 µM,,
CN1CCC(NC(=O)Nc2ccc3ncc(-c4cn[nH]c4)cc3n2)CC1 [Compound 0078],1 to 10 µM,0.1 to 1 µM,,
C[C@H](NC(=O)Nc1ccc2ncc(-c3cn[nH]c3)cc2n1)C1CCCCC1 [Compound 0079],< 0.1 µM,< 0.1 µM,,

Structure (SMILES),IC50 (human PI3Kα protein; [2]),"IC50 [1, 3]","IC50 (human PI3Kα protein; read-out: PI3Kα, IC50)","IC50 ([1]; read-out: ERK2, IC50)"
C[C@@H](NC(=O)Nc1ccc2ncc(-c3cn[nH]c3)cc2n1)C1CCCCC1 [Compound 0080],< 0.1 µM,< 0.1 µM,0.06 µM,< 0.003 µM
O=C(NCC1CCCC1)Nc1ccc2ncc(-c3cn[nH]c3)cc2n1 [Compound 0081],< 0.1 µM,< 0.1 µM,,
CC(C)[C@@H](C)NC(=O)Nc1ccc2ncc(-c3cn[nH]c3)cc2n1 [Compound 0082],< 0.1 µM,< 0.1 µM,,
CC(C)[C@H](C)NC(=O)Nc1ccc2ncc(-c3cn[nH]c3)cc2n1 [Compound 0083],< 0.1 µM,< 0.1 µM,,
C[C@@H]1CN(c2cnc3ccc(NC(=O)NC4CCCC4)nc3c2)C[C@H](C)O1 [Compound 0085],< 0.1 µM,0.1 to 1 µM,,
CC(CCc1ccccc1)NC(=O)Nc1ccc2ncc(-c3cn[nH]c3)cc2n1 (stereo not drawn) [Compound 0088],< 0.1 µM,< 0.1 µM,,
O=C(NCCc1ccccc1)Nc1ccc2ncc(-c3cn[nH]c3)cc2n1 [Compound 0089],0.1 to 1 µM,< 0.1 µM,,
O=C(Nc1ccc2ncc(-c3cn[nH]c3)cc2n1)NC1CCC(Oc2ccccc2)C1 (stereo not drawn) [Compound 0092],< 0.1 µM,< 0.1 µM,,
CCCCCNC(=O)Nc1ccc2ncc(-c3cn[nH]c3)cc2n1 [Compound 0094],< 0.1 µM,< 0.1 µM,,
O=C(NCCCc1ccccc1)Nc1ccc2ncc(-c3cn[nH]c3)cc2n1 [Compound 0095],0.1 to 1 µM,< 0.1 µM,,
O=C(NCCCCCc1ccccc1)Nc1ccc2ncc(-c3cn[nH]c3)cc2n1 [Compound 0096],0.1 to 1 µM,< 0.1 µM,,
O=C(NCCO)Nc1ccc2ncc(-c3cn[nH]c3)cc2n1 [Compound 0097],1 to 10 µM,0.1 to 1 µM,,
COCCNC(=O)Nc1ccc2ncc(-c3cn[nH]c3)cc2n1 [Compound 0098],0.1 to 1 µM,< 0.1 µM,,
COCCCNC(=O)Nc1ccc2ncc(-c3cn[nH]c3)cc2n1 [Compound 0100],0.1 to 1 µM,< 0.1 µM,,
O=C(NCc1ccccn1)Nc1ccc2ncc(-c3cn[nH]c3)cc2n1 [Compound 0101],1 to 10 µM,< 0.1 µM,,
O=C(NCc1cccnc1)Nc1ccc2ncc(-c3cn[nH]c3)cc2n1 [Compound 0102],1 to 10 µM,< 0.1 µM,,
O=C(NCc1ccncc1)Nc1ccc2ncc(-c3cn[nH]c3)cc2n1 [Compound 0103],0.1 to 1 µM,0.1 to 1 µM,,
O=C(NCCCOc1ccccc1)Nc1ccc2ncc(-c3cn[nH]c3)cc2n1 [Compound 0104],0.1 to 1 µM,< 0.1 µM,,

# Results, then the compound that gave them:
IC50 (human PI3Kα protein; [2]),"IC50 [1, 3]","IC50 (human PI3Kα protein; read-out: PI3Kα, IC50)","IC50 ([1]; read-out: ERK2, IC50)",Structure (SMILES)
0.1 to 1 µM,< 0.1 µM,,,C=CCNC(=O)Nc1ccc2ncc(-c3cn[nH]c3)cc2n1 [Compound 0056]
< 0.1 µM,< 0.1 µM,,,CCCCCCNC(=O)Nc1ccc2ncc(-c3cn[nH]c3)cc2n1 [Compound 0057]
< 0.1 µM,< 0.1 µM,,,O=C(Nc1ccc2ncc(-c3cn[nH]c3)cc2n1)NC1CCCCCC1 [Compound 0058]
0.1 to 1 µM,< 0.1 µM,,,O=C(NCc1ccccc1)Nc1ccc2ncc(-c3cn[nH]c3)cc2n1 [Compound 0060]
0.1 to 1 µM,< 0.1 µM,,,O=C(Nc1ccc2ncc(-c3cn[nH]c3)cc2n1)NC1CCCc2ccccc21 (stereo not drawn) [Compound 0065]
1 to 10 µM,< 0.1 µM,,,O=C(Nc1ccc2ncc(-c3cn[nH]c3)cc2n1)N[C@@H]1CCNC1 [Compound 0073]
1 to 10 µM,< 0.1 µM,,,O=C(Nc1ccc2ncc(-c3cn[nH]c3)cc2n1)N[C@H]1CCNC1 [Compound 0074]
0.1 to 1 µM,< 0.1 µM,,,O=C(Nc1ccc2ncc(-c3cn[nH]c3)cc2n1)N[C@H]1CCc2ccccc21 [Compound 0077]
< 0.1 µM,< 0.1 µM,,,O=C(Nc1ccc2ncc(-c3cn[nH]c3)cc2n1)NC1CCC1 [Compound 0084]
< 0.1 µM,< 0.1 µM,,,O=C(Nc1ccc2ncc(-c3cn[nH]c3)cc2n1)NC1Cc2ccccc2C1 [Compound 0086]
< 0.1 µM,< 0.1 µM,,,CC(C)CC(C)NC(=O)Nc1ccc2ncc(-c3cn[nH]c3)cc2n1 (stereo not drawn) [Compound 0087]
< 0.1 µM,0.1 to 1 µM,,,CC1CN(c2cnc3ccc(NC(=O)NC4CCCC4)nc3c2)CCO1 (stereo not drawn) [Compound 0090]
< 0.1 µM,< 0.1 µM,,,O=C(Nc1ccc2ncc(-c3cn[nH]c3)cc2n1)NC1CC[C@H](O)C1 (stereo partly drawn) [Compound 0091]
< 0.1 µM,< 0.1 µM,,,CCCCNC(=O)Nc1ccc2ncc(-c3cn[nH]c3)cc2n1 [Compound 0093]
0.1 to 1 µM,< 0.1 µM,,,CC(C)OCCNC(=O)Nc1ccc2ncc(-c3cn[nH]c3)cc2n1 [Compound 0099]
0.1 to 1 µM,< 0.1 µM,,,CN(CCCNC(=O)Nc1ccc2ncc(-c3cn[nH]c3)cc2n1)c1ccccc1 [Compound 0105]
1 to 10 µM,0.1 to 1 µM,,,CN(C)CCCNC(=O)Nc1ccc2ncc(-c3cn[nH]c3)cc2n1 [Compound 0106]
